Reference: ChEMBL document CHEMBL4651402, “Screening of ~5500 FDA-approved drugs and clinical candidates for anti-SARS-CoV-2 activity” (2021)

Tested on: SARS-CoV-2
Experiment: microbe, parasite or virus in culture
Conditions: Severe acute respiratory syndrome coronavirus 2, Vero C1008, 48 h

Row | Structure (SMILES) | IC50 [µM] | IC50 (read-out: pIC50 (converted)) [µM]
1 | COc1ccc2[nH]cc(CCN(C)C)c2c1 [MEBUFOTENIN] | > 20 | > 20
2 | CNC1(C)C2CCC(C2)C1(C)C (configuration not stated) [MECAMYLAMINE] | > 20 | > 20
3 | Cc1cccc(CN2CCN(C(c3ccccc3)c3ccc(Cl)cc3)CC2)c1 (configuration not stated) [MECLIZINE] | > 20 | > 20
4 | C=C1c2c(Cl)ccc(O)c2C(=O)C2=C(O)[C@]3(O)C(=O)C(C(N)=O)=C(O)[C@@H](N(C)C)[C@@H]3[C@@H](O)[C@H]12 [MECLOCYCLINE] | > 20 | > 20
5 | Cc1ccc(Cl)c(Nc2ccccc2C(=O)O)c1Cl [MECLOFENAMIC ACID] | > 20 | > 20
6 | CN(C)CCOC(=O)COc1ccc(Cl)cc1 [MECLOFENOXATE] | > 20 | > 20
7 | Cc1nc2ccccc2c(=O)n1-c1ccccc1Cl [MECLOQUALONE] | > 20 | > 20
8 | CNC(=O)NC(O)C(Cl)(Cl)Cl (configuration not stated) [MECLORALUREA] | > 20 | > 20
9 | COC(=O)C(N)CS (configuration not stated) [MECYSTEINE] | > 20 | > 20
10 | Cc1cccc(C(C)c2c[nH]cn2)c1C (configuration not stated) [MEDETOMIDINE] | > 20 | > 20
11 | CC(=O)[C@H]1CC[C@H]2[C@@H]3C[C@H](C)C4=CC(=O)CC[C@]4(C)[C@H]3[C@@H](O)C[C@]12C [MEDRYSONE] | > 20 | > 20
12 | Cc1cccc(Nc2ccccc2C(=O)O)c1C [MEFENAMIC ACID] | > 20 | > 20
13 | CCN(CC)CCNC(=O)COc1ccc(OC)cc1 [MEFEXAMIDE] | > 20 | > 20
14 | CN(CC1(C)CCCO1)S(=O)(=O)c1ccc(Cl)c(S(N)(=O)=O)c1 (configuration not stated) [MEFRUSIDE] | > 20 | > 20
15 | CC(=O)O[C@]1(C(C)=O)CC[C@H]2[C@@H]3C=C(C)C4=CC(=O)CC[C@]4(C)[C@H]3CC[C@@]21C [MEGESTROL ACETATE] | > 20 | > 20
16 | CNC[C@H](O)[C@@H](O)[C@H](O)[C@H](O)CO [MEGLUMINE] | > 20 | > 20
17 | CC(O)(CC(=O)O)CC(=O)O [MEGLUTOL] | > 20 | > 20
18 | COc1ccc2[nH]cc(CCNC(C)=O)c2c1 [MELATONIN] | > 20 | > 20
19 | CCCCC/C=C/C/C=C/CCCCCCCC(=O)NC(C)c1ccccc1 (configuration not stated) [MELINAMIDE] | > 20 | > 20
20 | Cc1cnc(NC(=O)C2=C(O)c3ccccc3S(=O)(=O)N2C)s1 [MELOXICAM] | > 20 | > 20
21 | CC1CCN(CCCC(=O)c2ccc(F)cc2)CC1 [MELPERONE] | > 20 | > 20

Row | Structure (SMILES) | IC50 [µM] | IC50 (read-out: pIC50 (converted)) [µM]
22 | CC12CC3CC(C)(C1)CC(N)(C3)C2 [MEMANTINE] | > 20 | > 20
23 | CC1=CC(=O)c2ccccc2C1=O [MENADIONE] | > 20 | > 20
24 | CC(C)=CCC/C(C)=C/CC1=C(C)C(=O)c2ccccc2C1=O [MENAQUINONE-2] | > 20 | > 20
25 | CC(C)=CCC/C(C)=C/CC/C(C)=C/CC/C(C)=C/CC1=C(C)C(=O)c2ccccc2C1=O [MENATETRENONE] | > 20 | > 20
26 | CC1CCC(C(C)C)C(O)C1 (configuration not stated) [MENTHOL] | > 20 | > 20
27 | C/N=C(/NC)NCc1ccc(OC)cc1 [MEOBENTINE] | > 20 | > 20
28 | CN1CCCC(CN2c3ccccc3Sc3ccccc32)C1 (configuration not stated) [MEPAZINE] | > 20 | > 20
29 | C[N+]1(C)CCCC(OC(=O)C(O)(c2ccccc2)c2ccccc2)C1 (configuration not stated) [MEPENZOLATE] | > 20 | > 20
30 | CCOC(=O)C1(c2ccccc2)CCN(C)CC1 [MEPERIDINE] | > 20 | > 20
31 | Cc1ccccc1OCC(O)CO (configuration not stated) [MEPHENESIN] | > 20 | > 20
32 | COc1ccccc1OCC1CNC(=O)O1 (configuration not stated) [MEPHENOXALONE] | > 20 | > 20
33 | CNC(C)(C)Cc1ccccc1 [MEPHENTERMINE] | > 20 | > 20
34 | CCC1(c2ccccc2)C(=O)NC(=O)N(C)C1=O (configuration not stated) [MEPHOBARBITAL] | > 20 | > 20
35 | Cc1cc(CCN2CCN(c3cccc(Cl)c3)CC2)n[nH]1 [MEPIPRAZOLE] | > 20 | > 20
36 | Cc1cccc(C)c1NC(=O)C1CCCCN1C (configuration not stated) [MEPIVACAINE] | > 20 | > 20
37 | COc1cccc([C@H]2C[C@@H](N[C@H](C)c3ccccc3)C(=O)N2c2ccc(C(F)(F)F)cc2)c1 [MEPPEP] | > 20 | > 20
38 | CCCC(C)(COC(N)=O)COC(N)=O [MEPROBAMATE] | > 20 | > 20
39 | CCCNC(C)(C)COC(=O)c1ccccc1 [MEPRYLCAINE] | > 20 | > 20
40 | CCC1(c2cccc(O)c2)CCCCN(C)C1 (configuration not stated) [MEPTAZINOL] | > 20 | > 20
41 | COc1ccc(O)cc1 [MEQUINOL] | > 20 | > 20
42 | Sc1ncnc2nc[nH]c12 [MERCAPTOPURINE ANHYDROUS] | > 20 | > 20

Row | Structure (SMILES) | IC50 [µM] | IC50 (read-out: pIC50 (converted)) [µM]
43 | Cc1ccc(C(=O)Nc2ccc(Oc3cc4cnn(C)c4cc3-c3cn[nH]c3)c(F)c2)c(=O)n1-c1ccc(F)cc1 [MERESTINIB] | > 20 | > 20
44 | CC(C)C(=O)OC[C@H]1O[C@@H](n2ccc(N)nc2=O)[C@](C)(F)[C@@H]1OC(=O)C(C)C [MERICITABINE] | > 20 | > 20
45 | COc1cc(NC(=O)Nc2cccc(CNC(=O)O[C@H]3CCOC3)c2)ccc1-c1cnco1 [MERIMEPODIB] | > 20 | > 20
46 | C[C@@H](O)[C@H]1C(=O)N2C(C(=O)O)=C(S[C@@H]3CN[C@H](C(=O)N(C)C)C3)[C@H](C)[C@H]12 [MEROPENEM] | > 20 | > 20
47 | Nc1ccc(O)c(C(=O)O)c1 [MESALAMINE] | > 20 | > 20
48 | CC1CC2Oc3ccc(Cl)cc3C(=O)N2O1 (configuration not stated) [MESECLAZONE] | > 20 | > 20
49 | CN1CCCCC1CCN1c2ccccc2Sc2ccc([S+](C)[O-])cc21 (configuration not stated) [MESORIDAZINE] | > 20 | > 20
50 | CCOC(=O)C1=C(C)NC(C)=C(C(=O)OCC)C1c1cccnc1SC [MESUDIPINE] | > 20 | > 20
51 | CC(=O)Nc1cccc(O)c1 [METACETAMOL] | > 20 | > 20
52 | COCC1CN=C(c2ccccc2Cl)c2cc(Br)ccc2N1C (configuration not stated) [METACLAZEPAM] | > 20 | > 20
53 | COc1cc2c(cc1OC)C(=O)OC2 [METAMECONINE] | > 20 | > 20
54 | Cc1c(N(C)CS(=O)(=O)O)c(=O)n(-c2ccccc2)n1C [METAMIZOLE] | > 20 | > 20
55 | CNCC(O)c1ccc(O)c(OC)c1 (configuration not stated) [METANEPHRINE] | > 20 | > 20
56 | C[C@H](N)[C@H](O)c1cccc(O)c1 [METARAMINOL] | > 20 | > 20
57 | Cc1cc(C)cc(OCC2CNC(=O)O2)c1 (configuration not stated) [METAXALONE] | > 20 | > 20
58 | CN1C[C@H](CNC(=O)OCc2ccccc2)C[C@@H]2c3cccc4c3c(cn4C)C[C@H]21 [METERGOLINE] | > 20 | > 20
59 | CN(C)C(=N)NC(=N)N [METFORMIN] | > 20 | > 20
60 | CC(=O)OC(C)C[N+](C)(C)C (configuration not stated) [METHACHOLINE] | > 20 | > 20
61 | C=C1c2cccc(O)c2C(=O)C2=C(O)[C@]3(O)C(=O)C(C(N)=O)=C(O)[C@@H](N(C)C)[C@@H]3[C@@H](O)[C@H]12 [METHACYCLINE] | > 20 | > 20
62 | C=CC(C)NC(=S)NNC(=S)NC (configuration not stated) [METHALLIBURE] | > 20 | > 20
63 | CN[C@@H](C)Cc1ccccc1 [METHAMPHETAMINE] | > 20 | > 20

Row | Structure (SMILES) | IC50 [µM] | IC50 (read-out: pIC50 (converted)) [µM]
64 | O=C(NNCS(=O)(=O)O)c1ccncc1 [METHANIAZIDE] | > 20 | > 20
65 | Cc1ccccc1-n1c(C)nc2ccccc2c1=O [METHAQUALONE] | > 20 | > 20
66 | CCC1(CC)C(=O)NC(=O)N(C)C1=O [METHARBITAL] | > 20 | > 20
67 | CC(=O)/N=c1/sc(S(N)(=O)=O)nn1C [METHAZOLAMIDE] | > 20 | > 20
68 | C1N2CN3CN1CN(C2)C3 [METHENAMINE] | > 20 | > 20
69 | COc1cccc(OC)c1C(=O)N[C@@H]1C(=O)N2[C@@H]1SC(C)(C)[C@@H]2C(=O)O [METHICILLIN] | > 20 | > 20
70 | Cn1ccnc1S [METHIMAZOLE] | > 20 | > 20
71 | COc1ccccc1OCC(O)COC(N)=O (configuration not stated) [METHOCARBAMOL] | > 20 | > 20
72 | COc1ccccc1CNCCCCCCNCCCCCCCCNCCCCCCNCc1ccccc1OC [METHOCTRAMINE] | > 20 | > 20
73 | COc1cc2c(cc1OC)C(CCc1ccc(Cl)cc1)N(C)CC2 (configuration not stated) [METHOPHOLINE] | > 20 | > 20
74 | COc1ccc(OC)c(C(O)C(C)N)c1 (configuration not stated) [METHOXAMINE] | > 20 | > 20
75 | COc1c2occc2cc2ccc(=O)oc12 [METHOXSALEN] | > 20 | > 20
76 | CNC(C)Cc1ccccc1OC (configuration not stated) [METHOXYPHENAMINE] | > 20 | > 20
77 | C[N+]1(C)[C@@H]2C[C@@H](OC(=O)[C@H](CO)c3ccccc3)C[C@H]1[C@@H]1O[C@@H]12 [METHSCOPOLAMINE] | > 20 | > 20
78 | CN1C(=O)CC(C)(c2ccccc2)C1=O (configuration not stated) [METHSUXIMIDE] | > 20 | > 20
79 | CCCCCCCCCCCCCCC1(C(=O)OC)CO1 (configuration not stated) [METHYL PALMOXIRATE] | > 20 | > 20
80 | CC[N+](C)(CC)CCOC(=O)C(O)(c1ccccc1)c1ccccc1 [METHYLBENACTYZIUM] | > 20 | > 20
81 | Cc1cc(C(C)(C)CC(C)(C)C)ccc1OCCOCC[N+](C)(C)Cc1ccccc1 [METHYLBENZETHONIUM] | > 20 | > 20
